Data taken from publication PMC7106896, “Synthesis and biological evaluation of 2-(4-methylsulfonyl phenyl) indole derivatives: multi-target compounds with dual antimicrobial and anti-inflammatory activities” (BMC Chemistry, 2020).

How the values were obtained:
human recombinant COX-2 = test: In vitro COX inhibition colorimetric assay; format: biochemical; conditions: COX-1 IC50/COX-2 IC50
[1] = test system: Acinetobacter baumannii (ATCC 19606); test: Antimicrobial screening (CO-ADD), growth inhibition at single concentration; format: cell-based; conditions: ATCC19606, at 32 µg/mL concentration, read-out: growth inhibition % Ab (A. baumannii)
Description: (§1) The antimicrobial study was performed by CO-ADD (The Community for Antimicrobial Drug Discovery), funded by the Wellcome Trust (UK) and The University of Queensland (Australia). Evaluation of all synthesized compounds for their antimicrobial activities was done against five pathogenic bacteria, methicillin-resistant Staphylococcus aureus (ATCC 43300) as Gram-positive bacteria, Escherichia coli (ATCC 25922), Klebsiella pneumonia (ATCC 700603), Acinetobacter baumannii (ATCC 19606) and Pseudomonas aeruginosa (ATCC 27853) as Gram-negative bacteria and antifungal activity against two pathogenic fungal strains Candida albicans (ATCC 90028) and Cryptococcus neoformans var. grubii (H99; ATCC 208821) (Table 1).

[2] = test system: methicillin-resistant Staphylococcus aureus (ATCC 43300); test: as above; format: cell-based; conditions: ATCC 43300 / MRSA, at 32 µg/mL concentration, read-out: growth inhibition % Sa (MRSA)
Description: as §1

[3] = test system: Klebsiella pneumonia (ATCC 700603); test: as above; format: cell-based; conditions: Klebsiella pneumoniae, ATCC700603; at 32 µg/mL concentration; read-out: growth inhibition % Kp (K. pneumoniae)
Description: as §1

[4] = test system: Candida albicans (ATCC 90028); test: Antifungal screening (CO-ADD), growth inhibition at single concentration; format: cell-based; conditions: ATCC90028, at 32 µg/mL concentration, read-out: growth inhibition % Ca (C. albicans)
Description: as §1

[5] = test system: carrageenan-induced rat paw edema; test: Carrageenan-induced rat paw edema assay; format: in vivo; conditions: for Edema thickness (mm) ± SEM: n = 4
Description: Pretreatment of rats with compounds 7a–k, 8a–c, and 9a–c before injection with carrageenan in rat paw which induces inflammation and then the percentage of paw edema reduction was measured after certain hours according to previously reported procedures.

Ovine COX-1 = biological target: T1, Ovine COX-1 (Ovis aries, UniProt P05979); test: In vitro COX inhibition colorimetric assay; format: biochemical
T1 construct: purchased Cayman Chemical, Ann Arbor, MI, USA 760111
T1 sequence (P05979 25-600): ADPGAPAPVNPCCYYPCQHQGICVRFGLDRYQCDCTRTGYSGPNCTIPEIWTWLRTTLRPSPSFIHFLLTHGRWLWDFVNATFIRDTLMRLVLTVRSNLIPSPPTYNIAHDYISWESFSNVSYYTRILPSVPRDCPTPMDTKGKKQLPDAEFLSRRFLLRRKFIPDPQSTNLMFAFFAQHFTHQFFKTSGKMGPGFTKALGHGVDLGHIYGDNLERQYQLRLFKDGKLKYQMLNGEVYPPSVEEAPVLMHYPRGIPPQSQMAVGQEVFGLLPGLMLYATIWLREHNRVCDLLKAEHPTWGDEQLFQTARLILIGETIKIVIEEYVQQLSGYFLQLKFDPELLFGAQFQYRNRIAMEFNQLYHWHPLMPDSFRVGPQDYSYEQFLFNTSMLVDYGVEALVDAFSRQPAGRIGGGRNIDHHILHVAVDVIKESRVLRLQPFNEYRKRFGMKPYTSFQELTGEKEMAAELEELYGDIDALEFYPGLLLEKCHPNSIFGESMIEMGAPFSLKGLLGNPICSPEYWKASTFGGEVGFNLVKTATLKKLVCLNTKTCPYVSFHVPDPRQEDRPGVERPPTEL

[6] = test system: Pseudomonas aeruginosa (ATCC 27853); test: Antimicrobial screening (CO-ADD), growth inhibition at single concentration; format: cell-based; conditions: ATCC27853, at 32 µg/mL concentration, read-out: growth inhibition % Pa (P. aeruginosa)
Description: as §1

Cc1ccc2[nH]c(-c3ccc(S(C)(=O)=O)cc3)c(C=NNc3ccc(F)cc3)c2c1 [Compound 7f, 3-((2-(4-Fluorophenyl)hydrazono)methyl)-5-methyl-2-(4-(methylsulfonyl)phenyl)-1H-indole]
Selectivity index (SI) (human recombinant COX-2): 57.23
inhibition at 32 µg/mL [1]: 66.7%
inhibition at 32 µg/mL [2]: 8.33%
inhibition at 32 µg/mL [3]: 8.05%
inhibition at 32 µg/mL [4]: 3.5%
Edema inhibition % ([5]; 1 h): 60.5%
Edema thickness (mm) ± SEM ([5]; 1 h): 1.036 ± 0.009 mm
Edema inhibition % ([5]; 3 h): 72.7%
Edema thickness (mm) ± SEM ([5]; 3 h): 0.609 ± 0.03 mm
Edema inhibition % ([5]; 6 h): 79.2%
Edema thickness (mm) ± SEM ([5]; 6 h): 0.394 ± 0.01 mm
melting point: 159 to 161 °C
IC50 (Ovine COX-1): 9.73 µM

CS(=O)(=O)c1ccc(-c2[nH]c3ccc(F)cc3c2C=NNc2ccc(F)cc2)cc1 [Compound 7j, 5-Fluoro-3-((2-(4-fluorophenyl)hydrazono)methyl)-2-(4-(methylsulfonyl)phenyl)-1H-indole]
Selectivity index (SI) (human recombinant COX-2): 98.18
inhibition at 32 µg/mL [1]: 46.2%
inhibition at 32 µg/mL [2]: 30.6%
inhibition at 32 µg/mL [3]: 12.3%
inhibition at 32 µg/mL [4]: 1.91%
Edema inhibition % ([5]; 1 h): 64.3%
Edema thickness (mm) ± SEM ([5]; 1 h): 0.936 ± 0.064 mm
Edema inhibition % ([5]; 3 h): 78.6%
Edema thickness (mm) ± SEM ([5]; 3 h): 0.477 ± 0.027 mm
Edema inhibition % ([5]; 6 h): 71%
Edema thickness (mm) ± SEM ([5]; 6 h): 0.549 ± 0.013 mm
melting point: 200 to 202 °C
IC50 (Ovine COX-1): 10.8 µM

CS(=O)(=O)c1ccc(-c2[nH]c3ccccc3c2-c2nc3cc(Cl)ccc3[nH]2)cc1 [Compound 8a, 5-Chloro-2-(2-(4-(methylsulfonyl)phenyl)-1H-indol-3-yl)-1H-benzo[d]imidazole]
Selectivity index (SI) (human recombinant COX-2): 81.84
inhibition at 32 µg/mL [2]: 13.6%
inhibition at 32 µg/mL [4]: 7.71%
Edema inhibition % ([5]; 1 h): 52.5%
Edema thickness (mm) ± SEM ([5]; 1 h): 1.246 ± 0.076 mm
Edema inhibition % ([5]; 3 h): 58%
Edema thickness (mm) ± SEM ([5]; 3 h): 0.937 ± 0.046 mm
Edema inhibition % ([5]; 6 h): 56.4%
Edema thickness (mm) ± SEM ([5]; 6 h): 0.826 ± 0.078 mm
melting point: 210 to 212 °C
IC50 (Ovine COX-1): 10.6 µM

Cc1ccc2[nH]c(-c3ccc(S(C)(=O)=O)cc3)c(-c3nc4cc(Cl)ccc4[nH]3)c2c1 [Compound 8c, 5-Chloro-2-(5-methyl-2-(4-(methylsulfonyl)phenyl)-1H-indol-3-yl)-1H-benzo[d]imidazole]
Selectivity index (SI) (human recombinant COX-2): 93.58
inhibition at 32 µg/mL [2]: 4.62%
inhibition at 32 µg/mL [4]: 1.65%
Edema inhibition % ([5]; 1 h): 67.9%
Edema thickness (mm) ± SEM ([5]; 1 h): 0.842 ± 0.062 mm
Edema inhibition % ([5]; 3 h): 71.9%
Edema thickness (mm) ± SEM ([5]; 3 h): 0.627 ± 0.05 mm
Edema inhibition % ([5]; 6 h): 74.2%
Edema thickness (mm) ± SEM ([5]; 6 h): 0.489 ± 0.032 mm
melting point: 217 to 219 °C
IC50 (Ovine COX-1): 11.2 µM

Cc1ccc2[nH]c(-c3ccc(S(C)(=O)=O)cc3)c(/C=N/Nc3ccc(S(C)(=O)=O)cc3)c2c1 [Compound 7d, 5-Methyl-2-(4-(methylsulfonyl)phenyl)-3-((2-(4-(methylsulfonyl)phenyl) hydraz-ono)methyl)-1H-indole]
Selectivity index (SI) (human recombinant COX-2): 69.33
inhibition at 32 µg/mL [1]: 35%
inhibition at 32 µg/mL [2]: 15.6%
inhibition at 32 µg/mL [3]: 4.86%
inhibition at 32 µg/mL [4]: 2.54%
Edema inhibition % ([5]; 1 h): 51.6%
Edema thickness (mm) ± SEM ([5]; 1 h): 1.270 ± 0.015 mm
Edema inhibition % ([5]; 3 h): 77.5%
Edema thickness (mm) ± SEM ([5]; 3 h): 0.502 ± 0.044 mm
Edema inhibition % ([5]; 6 h): 78.6%
Edema thickness (mm) ± SEM ([5]; 6 h): 0.405 ± 0.018 mm
melting point: 262 to 264 °C
IC50 (Ovine COX-1): 10.4 µM

CS(=O)(=O)c1ccc(NN=Cc2c(-c3ccc(S(C)(=O)=O)cc3)[nH]c3ccccc23)cc1 [Compound 7b, 2-(4-(Methylsulfonyl)phenyl)-3-((2-(4-(methylsulfonyl)phenyl)hydrazono)methyl)-1H-indole]
Selectivity index (SI) (human recombinant COX-2): 124.10
inhibition at 32 µg/mL [1]: 35.5%
inhibition at 32 µg/mL [2]: 25.6%
inhibition at 32 µg/mL [6]: 3.8%
inhibition at 32 µg/mL [4]: 9.55%
Edema inhibition % ([5]; 1 h): 76.1%
Edema thickness (mm) ± SEM ([5]; 1 h): 0.627 ± 0.045 mm
Edema inhibition % ([5]; 3 h): 91.2%
Edema thickness (mm) ± SEM ([5]; 3 h): 0.196 ± 0.017 mm
Edema inhibition % ([5]; 6 h): 93.5%
Edema thickness (mm) ± SEM ([5]; 6 h): 0.123 ± 0.009 mm
melting point: 228 to 230 °C
IC50 (Ovine COX-1): 12.4 µM

Cc1ccc2[nH]c(-c3ccc(S(C)(=O)=O)cc3)c(C=NO)c2c1 [Compound 9c, 5-Methyl-2-(4-(methylsulfonyl)phenyl)-1H-indole-3-carbaldehyde oxime]
Selectivity index (SI) (human recombinant COX-2): 34.33
inhibition at 32 µg/mL [1]: 33.7%
inhibition at 32 µg/mL [3]: 1.19%
inhibition at 32 µg/mL [4]: 4.88%
Edema inhibition % ([5]; 1 h): 55.2%
Edema inhibition % ([5]; 3 h): 68.6%
Edema thickness (mm) ± SEM ([5]; 3 h): 0.435 ± 0.033 mm
Edema inhibition % ([5]; 6 h): 61.7%
Edema thickness (mm) ± SEM ([5]; 6 h): 0.504 ± 0.009 mm
melting point: 212 to 214 °C
IC50 (Ovine COX-1): 8.24 µM

Cc1ccc2[nH]c(-c3ccc(S(C)(=O)=O)cc3)c(/C=N/Nc3ccc(S(N)(=O)=O)cc3)c2c1 [Compound 7e, 4-(2-((5-Methyl-2-(4-(methylsulfonyl)phenyl)-1H-indol-3-yl)methylene) hydrazine-yl) benzenesulfonamide]
Selectivity index (SI) (human recombinant COX-2): 31.29
inhibition at 32 µg/mL [1]: 43.6%
inhibition at 32 µg/mL [2]: 7.58%
inhibition at 32 µg/mL [4]: 28.7%
Edema inhibition % ([5]; 1 h): 53.9%
Edema thickness (mm) ± SEM ([5]; 1 h): 1.209 ± 0.11 mm
Edema inhibition % ([5]; 3 h): 71.1%
Edema thickness (mm) ± SEM ([5]; 3 h): 0.645 ± 0.01 mm
Edema inhibition % ([5]; 6 h): 79.9%
Edema thickness (mm) ± SEM ([5]; 6 h): 0.381 ± 0.007 mm
melting point: 186 to 188 °C
IC50 (Ovine COX-1): 9.7 µM

Cc1ccc(-c2cc(C(F)(F)F)nn2-c2ccc(S(N)(=O)=O)cc2)cc1 [Celecoxib, celecoxib, reference compound]
Edema inhibition % ([5]; 1 h): 68.9%
Edema thickness (mm) ± SEM ([5]; 1 h): 0.810 ± 0.074 mm
Edema inhibition % ([5]; 3 h): 95.5%
Edema thickness (mm) ± SEM ([5]; 3 h): 0.100 ± 0.009 mm
Edema inhibition % ([5]; 6 h): 94.7%
Edema thickness (mm) ± SEM ([5]; 6 h): 0.100 ± 0.005 mm

COc1ccc2c(c1)c(CC(=O)O)c(C)n2C(=O)c1ccc(Cl)cc1 [Indomethacin, indomethacin, reference compound]
Edema inhibition % ([5]; 1 h): 70.7%
Edema thickness (mm) ± SEM ([5]; 1 h): 0.768 ± 0.050 mm
Edema inhibition % ([5]; 3 h): 96%
Edema thickness (mm) ± SEM ([5]; 3 h): 0.075 ± 0.007 mm
Edema inhibition % ([5]; 6 h): 96.6%
Edema thickness (mm) ± SEM ([5]; 6 h): 0.075 ± 0.004 mm
